Laboratory results: publication PMC6543911, “Discovery of Coumarin as Microtubule Affinity-Regulating Kinase 4 Inhibitor That Sensitize Hepatocellular Carcinoma to Paclitaxel” (Frontiers in Chemistry, 2019)

What follows are molecules tested against T1, MARK4 catalytic domain (Homo sapiens, UniProt Q96L34) (assay: Kinase activity assay (ADP-Glo) using MARK4 as enzyme). Details: MARK4 5 nM, 100 μM ATP, 5 μM MAP4, 30 min; duplicate, means ± SEM.
T1 construct: The recombinant MARK4 catalytic domain was used as kinase; made in house; host or cells: E. coli BL21 (DE3)
T1 sequence (Q96L34 59-310 limits assumed): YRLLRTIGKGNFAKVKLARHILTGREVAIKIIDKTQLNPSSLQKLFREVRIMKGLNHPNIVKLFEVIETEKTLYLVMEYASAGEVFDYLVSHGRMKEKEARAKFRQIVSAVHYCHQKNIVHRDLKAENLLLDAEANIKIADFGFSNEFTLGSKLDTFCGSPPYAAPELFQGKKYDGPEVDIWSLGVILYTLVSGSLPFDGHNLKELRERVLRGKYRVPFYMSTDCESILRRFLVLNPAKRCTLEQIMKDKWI
Format: biochemical
Method: MARK4 catalytic domain sequence was subcloned into pET-28a vector. Protein expression in E. coli. BL21 (DE3) was induced by IPTG overnight at 16°C, and the cells were then pelleted by centrifugation at 4,000 rpm for 15 min and resuspended in 20 mL buffer (20 mM Tris-HCl, 150 mM NaCl, 25 mM imidazole pH 8.0). Proteins were purified by nickel-affinity chromatography followed by thrombin cleavage. The proteins were further purified by size-exclusion chromatography using a Superdex 75 column (GE Healthcare).
The kinase activity of MARK4 was measured via ADP-Glo™ kinase assay kit (Promega, USA) under manufacturer's instruction. The recombinant MARK4 catalytic domain was used as kinase. MARK4 (5 nM) activity was tested in a reaction (10 μL) containing 25 mM Tris (pH 7.6), 10 mM MgCl2, 150 mM NaCl, 1 mM EDTA, 1 mM DTT, 100 μM ATP, 5 μM MAP4 and varied concentrations of samples for 30 min. The reaction progress was monitored on Thermo Scientific Varioskan Flash Multimode Reader. Each data point was collected in duplicate and kinetic parameters were obtained using GraphPad Prism v6.0 software.

Structure (SMILES) | IC50
COc1cc(Br)cc2cc(-c3ccc(Cl)cc3)c(=O)oc12 [Compound 39] | 16.9 ± 4.26 µM
O=C(c1ccccc1)c1cc2c(ccc3ccccc32)oc1=O [Compound 54] | 21.3 ± 2 µM
O=C(c1ccccc1)c1cc2ccccc2oc1=O [Compound 52] | 27 ± 3.65 µM
O=c1cc(O)c2ccccc2o1 [Compound 62] | > 50 µM
Cc1cc(=O)oc2cc(O)cc(O)c12 [Compound 56] | > 50 µM
COc1cccc(-c2cc3cccc(OC)c3oc2=O)c1 [Compound 13] | 8.98 ± 2.74 µM
O=C(c1ccccc1)c1cc2cc(Cl)ccc2oc1=O [Compound 49] | 4.12 ± 0.605 µM
COc1cccc(-c2cc3cc(Br)cc(OC)c3oc2=O)c1 [Compound 35] | 12.8 ± 1.25 µM
COc1ccc2c(C)cc(=O)oc2c1 [Compound 55] | > 50 µM
COc1cccc2cc(C(C)=O)c(=O)oc12 [Compound 47] | 14.6 ± 2.99 µM
COc1ccc(-c2cc3cc(Cl)cc(Cl)c3oc2=O)cc1 [Compound 24] | 10 ± 3.65 µM
COc1cc(OC)c2c(C)cc(=O)oc2c1 [Compound 58] | > 50 µM
COc1cc(-c2cc3cc(Cl)ccc3oc2=O)cc(OC)c1OC [Compound 21] | 25.5 ± 1.01 µM
COc1cc(Br)cc2cc(-c3cccnc3)c(=O)oc12 [Compound 44] | > 50 µM
COc1cccc2cc(-c3ccc(Cl)cc3)c(=O)oc12 [Compound 16] | > 50 µM
COc1cc(Br)cc2cc(-c3cccc(O)c3)c(=O)oc12 [Compound 45] | > 50 µM
COc1cc(OC)c2c(-c3ccccc3)cc(=O)oc2c1 [Compound 60] | > 50 µM
COc1ccc(-c2cc3ccccc3sc2=O)cc1 [Compound 66, 3-(4-Methoxyphenyl)-2H-thiochromen-2-one] | 35.6 ± 3.9 µM
COc1cccc(-c2cc3cc(Cl)cc(Cl)c3oc2=O)c1 [Compound 25] | 7.76 ± 2.93 µM
COc1ccc(-c2cc3ccccc3oc2=O)cc1OC [Compound 28] | > 50 µM
O=c1ccc2cc(Cl)ccc2o1 [Compound 2] | > 50 µM
CC(=O)c1cc2ccccc2oc1=O [Compound 51] | 25.9 ± 2.73 µM
COc1cc(Br)cc2cc(-c3ccc(OC(C)=O)cc3)c(=O)oc12 [Compound 42] | > 50 µM

Structure (SMILES) | IC50
O=c1ccc2cc(Cl)cc(Cl)c2o1 [Compound 3] | > 50 µM
CC(C)(C)c1cc(C(C)(C)C)c2oc(=O)ccc2c1 [Compound 9] | > 50 µM
COc1cc(Br)cc2cc(-c3ccccc3)c(=O)oc12 [Compound 38] | 40.9 ± 4.04 µM
Cc1cc(=O)oc2cc(OCc3ccccc3)cc(OCc3ccccc3)c12 [Compound 59] | > 50 µM
O=c1oc2ccccc2cc1-c1ccc(F)cc1 [Compound 32] | 37.7 ± 6.07 µM
COc1ccc(-c2cc3cc(Cl)cc(Cl)c3oc2=O)cc1OC [Compound 23] | 17.4 ± 2.69 µM
O=c1oc2ccccc2cc1-c1ccccc1 [Compound 31] | 35 ± 5.78 µM
O=c1sc2ccccc2cc1-c1ccccc1 [Compound 65] | 36.1 ± 1.65 µM
COc1ccc(-c2cc3ccccc3oc2=O)cc1 [Compound 29] | 37.4 ± 2.84 µM
COc1cccc2cc(-c3ccc(F)cc3)c(=O)oc12 [Compound 17] | > 50 µM
O=c1sc2ccccc2cc1-c1ccc(F)cc1 [Compound 68, 3-(4-Fluorophenyl)-2H-thiochromen-2-one] | 32.2 ± 2.75 µM
COc1ccc(-c2cc3cccc(OC)c3oc2=O)cc1 [Compound 12] | 22.8 ± 4.61 µM
COc1ccc2ccc(=O)oc2c1 [Compound 10] | 25.1 ± 5.81 µM
COc1cccc(-c2cc3ccccc3oc2=O)c1 [Compound 30] | 39.3 ± 3.12 µM
Cc1ccc2oc(=O)ccc2c1 [Compound 6] | > 50 µM
CC(C)(C)C(=O)c1cc2ccccc2oc1=O [Compound 53] | 25 ± 2.4 µM
O=c1cc(OCc2ccccc2)c2ccccc2o1 [Compound 63] | > 50 µM
COc1cc(-c2cc3cc(Br)cc(OC)c3oc2=O)c(OC)c(OC)c1OC [Compound 36] | 33.6 ± 2.75 µM
COc1ccc(OC)c(-c2cc3cc(Br)cc(OC)c3oc2=O)c1 [Compound 43] | > 50 µM
O=c1cc(-c2ccccc2)c2c(OCc3ccccc3)cc(OCc3ccccc3)cc2o1 [Compound 61] | > 50 µM
COc1cccc(-c2cc3cc(Cl)cc(Cl)c3oc2=O)c1 [6,8-dichloro-3-(3-methoxyphenyl)-2H-chromen-2-one] | 7.8 µM
COc1ccc(-c2cc3cc(Cl)ccc3oc2=O)cc1 [Compound 19] | 27 ± 2.38 µM
COc1cc(-c2cc3cc(Br)cc(OC)c3oc2=O)cc(OC)c1OC [Compound 37] | 37.8 ± 5.43 µM

Structure (SMILES) | IC50
O=c1ccc2cc([N+](=O)[O-])ccc2o1 [Compound 8] | 37.9 ± 3.45 µM
COc1cccc2ccc(=O)oc12 [Compound 1] | > 50 µM
COc1ccccc1-c1cc2cc(Cl)cc(Cl)c2oc1=O [Compound 26] | > 50 µM
COc1cc(Br)cc2cc(-c3ccc(F)cc3)c(=O)oc12 [Compound 40] | 38.8 ± 4.83 µM
COc1cc(=O)oc2ccccc12 [Compound 64] | 40.4 ± 2.87 µM
COc1cc(Br)cc2cc(-c3cccc(OC(C)=O)c3)c(=O)oc12 [Compound 41] | > 50 µM
O=c1ccc2ccccc2o1 [Compound 4] | 41 ± 5.4 µM
COc1ccccc1-c1cc2cc(Cl)ccc2oc1=O [Compound 20] | > 50 µM
COc1ccc2oc(=O)ccc2c1 [Compound 5] | 35 ± 3.73 µM
COc1cccc2cc(C(=O)c3ccccc3)c(=O)oc12 [Compound 48] | 2.1 ± 0.372 µM
COc1ccc(-c2cc3cc(Br)cc(OC)c3oc2=O)cc1OC [Compound 33] | 46.3 ± 3.04 µM
O=c1oc2ccc(Cl)cc2cc1-c1ccc(Cl)cc1 [Compound 22] | 28 ± 2.01 µM
O=c1cc(-c2ccccc2)c2c(O)cc(O)cc2o1 [Compound 57] | > 50 µM
COc1ccc(-c2cc3cc(Cl)ccc3oc2=O)cc1OC [Compound 18] | 31 ± 2.81 µM
COc1cccc2cc(-c3ccccc3)c(=O)oc12 [Compound 15] | 31.5 ± 2.28 µM
COc1cc(Br)cc2cc(-c3ccc(O)cc3)c(=O)oc12 [Compound 46] | > 50 µM
COc1ccc(-c2cc3ccccc3sc2=O)cc1OC [Compound 67, 3-(3,4-Dimethoxyphenyl)-2H-thiochromen-2-one] | 11.1 ± 0.786 µM
O=c1oc2c(Cl)cc(Cl)cc2cc1-c1ccccc1 [Compound 27] | 42.1 ± 3.99 µM
COc1cc(-c2cc3cccc(OC)c3oc2=O)cc(OC)c1OC [Compound 14] | 34.5 ± 3.3 µM
CCOc1cccc2ccc(=O)oc12 [Compound 7] | > 50 µM
COc1ccc(-c2cc3cc(Br)cc(OC)c3oc2=O)cc1 [Compound 34] | > 50 µM
COc1ccc(-c2cc3cccc(OC)c3oc2=O)cc1OC [Compound 11] | 29.7 ± 4.21 µM

What follows are molecules tested on HepG2 cells (assay: Cell viability assay (MTT) in HepG2 cells). Details: HepG2 cells transiently transfected with MARK4-knockdown vs control vectors.
Format: cell-based
Method: HepG2 and SMMC-7721 cells were cultured in DMEM medium (Gibco) supplemented with 10% FBS (Gibco, USA). For transient transfection, cells were transfected with DNA by Lipofectamine 2000 (Thermo fisher, USA).
HCC cells (100 μL/each well, 20,000 cells/mL) were seeded in a 96-well culture plate and allowed to grow for 24 h in DMEM medium supplemented with 10% FBS and 1% penicillin/streptomycin sulfate. The cells were then treated with drugs or vehicle control and incubated in a 5% CO2 incubator for indicated time. At the end of incubation, 10 μL of MTT stock solution (5 mg/mL) was added into each well. The plate was continued to be incubated at 37°C for 4 h before the medium was removed. Then, DMSO (100 μL) was added into each well, followed by thorough shaking. The absorbance of the formazan product was measured at 570 nm on Thermo Scientific Varioskan Flash Multimode Reader. The IC50 value was obtained by fitting dose-response data to a three parametric non-linear regression model using GraphPad Prism 6.0 software.

Structure (SMILES) | sensitivity in MARK4-knockdown cells
CC(=O)O[C@H]1C(=O)[C@@]2(C)[C@H]([C@H](OC(=O)c3ccccc3)[C@]3(O)C[C@H](OC(=O)[C@H](O)[C@@H](NC(=O)c4ccccc4)c4ccccc4)C(C)=C1C3(C)C)[C@]1(OC(C)=O)CO[C@@H]1C[C@@H]2O [paclitaxel] | increased sensitivity

Same assay, conditions: Homo sapiens; HepG2 cells, MTT

Structure (SMILES) | IC50
COc1cccc(-c2cc3cc(Cl)cc(Cl)c3oc2=O)c1 [6,8-dichloro-3-(3-methoxyphenyl)-2H-chromen-2-one] | 15.9 µM

What follows are molecules tested on HepG2 cells (assay: Cell apoptosis assay (Annexin V-FITC/PI flow cytometry) in HepG2 cells). Details: 2.5 μM alone.
Format: cell-based
Method: HCC cells (2 × 10^5 cells/well) were plated in a 6-well plate and treated with samples at 37°C for 36 h. After incubation, the cells were harvested and washed with ice-cold PBS. Annexin V-FITC-PI apoptosis detection kit (Abcam, USA) was used for a direct observation of viable, early apoptotic, and late apoptotic cells. Annexin V-FITC and propidium iodide were added according to the manufacturer's instructions, and the samples were incubated in the dark for 15 min. The apoptosis ratio was analyzed using BD FACSCalibur flow cytometry.

Structure (SMILES) | apoptosis, single agent
CC(=O)O[C@H]1C(=O)[C@@]2(C)[C@H]([C@H](OC(=O)c3ccccc3)[C@]3(O)C[C@H](OC(=O)[C@H](O)[C@@H](NC(=O)c4ccccc4)c4ccccc4)C(C)=C1C3(C)C)[C@]1(OC(C)=O)CO[C@@H]1C[C@@H]2O [paclitaxel] | unable to trigger distinct apoptosis
